# PubChem BioAssay AID2060506 (Molecular Pharmacology Branch, DTP, NCI, 2025)
# System: 598228-144-R-J1-PDC complex spheroid viability
# Experiment: Anticancer human tumor 598228-144-R-J1-PDC patient-derived serous endometrial adenocarcinoma cell line growth inhibition [GQUAD]
# Conditions: for IC50: curve of first compound; for viability, T/C: stronger effect = lower value
# Summary of the method: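 Tumor cells were grown as complex spheroids with HUVEC endothelial cells and mesenchymal stem cells as stroma. G-quadruplex stabilizers were combined with targeted agents over half-log dilutions from near the clinical Cmax, or from 10 microM.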
# [1] = second compound 0.0316 µM, first compound 0.0316 µM
# [2] = second compound 0.0316 µM, first compound 0.1 µM
# [3] = second compound 0.0316 µM, first compound 0.316 µM
# [4] = second compound 0.0316 µM, first compound 1 µM
# [5] = second compound 0.0316 µM, first compound 3.16 µM
# [6] = second compound 0.0316 µM, first compound 10 µM
# [7] = second compound 0.1 µM, first compound 0.0316 µM
# [8] = second compound 0.1 µM, first compound 0.1 µM
# [9] = second compound 0.1 µM, first compound 0.316 µM
# [10] = second compound 0.1 µM, first compound 1 µM
# [11] = second compound 0.1 µM, first compound 3.16 µM
# [12] = second compound 0.1 µM, first compound 10 µM
# [13] = second compound 0.316 µM, first compound 0.0316 µM
# [14] = second compound 0.316 µM, first compound 0.1 µM
# [15] = second compound 0.316 µM, first compound 0.316 µM
# [16] = second compound 0.316 µM, first compound 1 µM
# [17] = second compound 0.316 µM, first compound 3.16 µM
# [18] = second compound 0.316 µM, first compound 10 µM
# [19] = second compound 1 µM, first compound 0.0316 µM
# [20] = second compound 1 µM, first compound 0.1 µM
# [21] = second compound 1 µM, first compound 0.316 µM
# [22] = second compound 1 µM, first compound 1 µM
# [23] = second compound 1 µM, first compound 3.16 µM
# [24] = second compound 1 µM, first compound 10 µM
# [25] = second compound 3.16 µM, first compound 0.0316 µM
# [26] = second compound 3.16 µM, first compound 0.1 µM
# [27] = second compound 3.16 µM, first compound 0.316 µM
# [28] = second compound 3.16 µM, first compound 1 µM
# [29] = second compound 3.16 µM, first compound 3.16 µM
# [30] = second compound 3.16 µM, first compound 10 µM
# [31] = second compound 10 µM, first compound 0.0316 µM
# [32] = second compound 10 µM, first compound 0.1 µM
# [33] = second compound 10 µM, first compound 0.316 µM
# [34] = second compound 10 µM, first compound 1 µM
# [35] = second compound 10 µM, first compound 3.16 µM
# [36] = second compound 10 µM, first compound 10 µM
# 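Also: spheroids exposed to the agents for one week before reading.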
# 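For viability, T/C in this document: percent of vehicle DMSO control viability so 100% = untreated growth.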
smiles,measurement,setting,value
CC1COCCN1c1cc(-c2ccnn2C)c2ccnc(-c3ccn[nH]3)c2n1 (centres undefined) + Cc1cnc(CNC(=O)c2c(=O)c3ccc(N4CCCN(C)CC4)nc3n3c2sc2ccccc23)cn1,IC50,second compound 0.0316 µM,56.5 nM
same,IC50,second compound 0.1 µM,< 31.6 nM
same,IC50,second compound 0.316 µM,66 nM
same,IC50,second compound 1 µM,38.7 nM
same,IC50,second compound 3.16 µM,< 31.6 nM
same,IC50,second compound 10 µM,< 31.6 nM
same,"viability, T/C",[1],52%
same,"viability, T/C",[2],48.3%
same,"viability, T/C",[3],44.7%
same,"viability, T/C",[4],29.7%
same,"viability, T/C",[5],33.5%
same,"viability, T/C",[6],30.9%
same,"viability, T/C",[7],47.9%
same,"viability, T/C",[8],38.4%
same,"viability, T/C",[9],43%
same,"viability, T/C",[10],33.2%
same,"viability, T/C",[11],38.3%
same,"viability, T/C",[12],25.8%
same,"viability, T/C",[13],58.2%
same,"viability, T/C",[14],40.6%
same,"viability, T/C",[15],42.9%
same,"viability, T/C",[16],32.5%
same,"viability, T/C",[17],39.1%
same,"viability, T/C",[18],21.3%
same,"viability, T/C",[19],52.3%
same,"viability, T/C",[20],42%
same,"viability, T/C",[21],43.2%
same,"viability, T/C",[22],33%
same,"viability, T/C",[23],28.2%
same,"viability, T/C",[24],22.2%
same,"viability, T/C",[25],45.8%
same,"viability, T/C",[26],26.1%
same,"viability, T/C",[27],33.6%
same,"viability, T/C",[28],23.4%
same,"viability, T/C",[29],20.7%
same,"viability, T/C",[30],4.32%
same,"viability, T/C",[31],23.5%
same,"viability, T/C",[32],17.4%
same,"viability, T/C",[33],8.76%
same,"viability, T/C",[34],6.24%
same,"viability, T/C",[35],0.97%
same,"viability, T/C",[36],8.07%
Nc1ccn(C2OC(CO)C(O)C2(F)F)c(=O)n1 (centres undefined) + Cc1cnc(CNC(=O)c2c(=O)c3ccc(N4CCCN(C)CC4)nc3n3c2sc2ccccc23)cn1,IC50,second compound 0.0316 µM,71.2 nM
same,IC50,second compound 0.1 µM,52.6 nM
same,IC50,second compound 0.316 µM,68.4 nM
same,IC50,second compound 1 µM,< 31.6 nM
same,IC50,second compound 3.16 µM,< 31.6 nM
same,IC50,second compound 10 µM,< 31.6 nM
same,"viability, T/C",[1],65.9%
same,"viability, T/C",[2],42.8%
same,"viability, T/C",[3],41.7%
same,"viability, T/C",[4],42.5%
same,"viability, T/C",[5],43.6%
same,"viability, T/C",[6],44.6%
same,"viability, T/C",[7],58.7%
same,"viability, T/C",[8],38.4%
same,"viability, T/C",[9],45.7%
same,"viability, T/C",[10],46.6%
same,"viability, T/C",[11],40%
same,"viability, T/C",[12],39%
same,"viability, T/C",[13],63.5%
same,"viability, T/C",[14],43.8%
same,"viability, T/C",[15],38.2%
same,"viability, T/C",[16],44.9%
same,"viability, T/C",[17],44.8%
same,"viability, T/C",[18],39.1%
same,"viability, T/C",[19],58.3%
same,"viability, T/C",[20],41.6%
same,"viability, T/C",[21],47.5%
same,"viability, T/C",[22],39.7%
same,"viability, T/C",[23],54.7%
same,"viability, T/C",[24],46.8%
same,"viability, T/C",[25],60.2%
same,"viability, T/C",[26],43.2%
same,"viability, T/C",[27],36.4%
same,"viability, T/C",[28],26.4%
same,"viability, T/C",[29],50.5%
same,"viability, T/C",[30],37%
same,"viability, T/C",[31],48.5%
same,"viability, T/C",[32],27.7%
same,"viability, T/C",[33],23.3%
same,"viability, T/C",[34],30.2%
same,"viability, T/C",[35],38.8%
same,"viability, T/C",[36],18.6%
